In patent publication US20250136578A1 (Kolm Therapeutics Inc., priority 2023, published 2025) one finds EC50 and IC50 data, which are given here for 17 compounds.

One may read the IC50 as the midpoint of a concentration-inhibition curve.

One experiment deals with AR / CBP ternary complex (Homo sapiens, UniProt P10275+Q92793). As to the kind of experiment: Ternary complex formation assay (sandwich ELISA, AR capture, CBP antibody detection) in VCaP cell lysates. Type of experiment: cell-based. The settings on record: treated 1.5 hours, rabbit CBP or p300 antibody detection, average, read-out: Average Ternary Complex. In outline: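 Sandwich ELISA: plates were coated with anti-AR antibody (AR441) and given lysates of VCaP cells treated 1.5 h with bifunctional compound in charcoal-stripped serum. Co-captured CBP or p300 was probed with rabbit mAbs and HRP secondary. Chemifluorescent signal (ex 570/em 585) was read at 0, 5 and 15 min.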
AR / CBP ternary complex, sequence (P10275 whole entry): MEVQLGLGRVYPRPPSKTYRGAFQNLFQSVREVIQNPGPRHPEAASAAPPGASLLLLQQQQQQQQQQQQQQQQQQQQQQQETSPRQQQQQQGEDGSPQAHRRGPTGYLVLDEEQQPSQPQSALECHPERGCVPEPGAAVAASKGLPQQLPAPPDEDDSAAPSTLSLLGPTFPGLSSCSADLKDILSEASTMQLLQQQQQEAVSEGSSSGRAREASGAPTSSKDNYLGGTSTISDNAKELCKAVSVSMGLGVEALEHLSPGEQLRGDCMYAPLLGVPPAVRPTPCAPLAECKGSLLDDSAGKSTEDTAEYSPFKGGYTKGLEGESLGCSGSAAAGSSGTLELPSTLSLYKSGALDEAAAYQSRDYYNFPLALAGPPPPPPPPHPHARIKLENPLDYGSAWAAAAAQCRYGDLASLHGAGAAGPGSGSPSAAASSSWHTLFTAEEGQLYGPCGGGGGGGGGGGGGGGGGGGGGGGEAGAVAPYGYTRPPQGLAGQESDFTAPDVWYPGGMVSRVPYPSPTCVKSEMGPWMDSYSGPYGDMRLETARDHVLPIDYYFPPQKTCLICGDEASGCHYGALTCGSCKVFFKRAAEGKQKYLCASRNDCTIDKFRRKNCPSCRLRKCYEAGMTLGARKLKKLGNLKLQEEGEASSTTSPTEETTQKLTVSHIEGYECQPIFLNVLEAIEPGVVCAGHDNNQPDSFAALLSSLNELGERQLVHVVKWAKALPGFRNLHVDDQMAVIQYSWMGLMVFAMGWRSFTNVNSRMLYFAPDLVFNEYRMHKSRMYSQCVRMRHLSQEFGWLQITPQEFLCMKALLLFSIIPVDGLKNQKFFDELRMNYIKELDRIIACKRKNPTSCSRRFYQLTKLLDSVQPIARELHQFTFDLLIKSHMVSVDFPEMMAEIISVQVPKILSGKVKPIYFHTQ
AR / CBP ternary complex, sequence (Q92793 2-2442): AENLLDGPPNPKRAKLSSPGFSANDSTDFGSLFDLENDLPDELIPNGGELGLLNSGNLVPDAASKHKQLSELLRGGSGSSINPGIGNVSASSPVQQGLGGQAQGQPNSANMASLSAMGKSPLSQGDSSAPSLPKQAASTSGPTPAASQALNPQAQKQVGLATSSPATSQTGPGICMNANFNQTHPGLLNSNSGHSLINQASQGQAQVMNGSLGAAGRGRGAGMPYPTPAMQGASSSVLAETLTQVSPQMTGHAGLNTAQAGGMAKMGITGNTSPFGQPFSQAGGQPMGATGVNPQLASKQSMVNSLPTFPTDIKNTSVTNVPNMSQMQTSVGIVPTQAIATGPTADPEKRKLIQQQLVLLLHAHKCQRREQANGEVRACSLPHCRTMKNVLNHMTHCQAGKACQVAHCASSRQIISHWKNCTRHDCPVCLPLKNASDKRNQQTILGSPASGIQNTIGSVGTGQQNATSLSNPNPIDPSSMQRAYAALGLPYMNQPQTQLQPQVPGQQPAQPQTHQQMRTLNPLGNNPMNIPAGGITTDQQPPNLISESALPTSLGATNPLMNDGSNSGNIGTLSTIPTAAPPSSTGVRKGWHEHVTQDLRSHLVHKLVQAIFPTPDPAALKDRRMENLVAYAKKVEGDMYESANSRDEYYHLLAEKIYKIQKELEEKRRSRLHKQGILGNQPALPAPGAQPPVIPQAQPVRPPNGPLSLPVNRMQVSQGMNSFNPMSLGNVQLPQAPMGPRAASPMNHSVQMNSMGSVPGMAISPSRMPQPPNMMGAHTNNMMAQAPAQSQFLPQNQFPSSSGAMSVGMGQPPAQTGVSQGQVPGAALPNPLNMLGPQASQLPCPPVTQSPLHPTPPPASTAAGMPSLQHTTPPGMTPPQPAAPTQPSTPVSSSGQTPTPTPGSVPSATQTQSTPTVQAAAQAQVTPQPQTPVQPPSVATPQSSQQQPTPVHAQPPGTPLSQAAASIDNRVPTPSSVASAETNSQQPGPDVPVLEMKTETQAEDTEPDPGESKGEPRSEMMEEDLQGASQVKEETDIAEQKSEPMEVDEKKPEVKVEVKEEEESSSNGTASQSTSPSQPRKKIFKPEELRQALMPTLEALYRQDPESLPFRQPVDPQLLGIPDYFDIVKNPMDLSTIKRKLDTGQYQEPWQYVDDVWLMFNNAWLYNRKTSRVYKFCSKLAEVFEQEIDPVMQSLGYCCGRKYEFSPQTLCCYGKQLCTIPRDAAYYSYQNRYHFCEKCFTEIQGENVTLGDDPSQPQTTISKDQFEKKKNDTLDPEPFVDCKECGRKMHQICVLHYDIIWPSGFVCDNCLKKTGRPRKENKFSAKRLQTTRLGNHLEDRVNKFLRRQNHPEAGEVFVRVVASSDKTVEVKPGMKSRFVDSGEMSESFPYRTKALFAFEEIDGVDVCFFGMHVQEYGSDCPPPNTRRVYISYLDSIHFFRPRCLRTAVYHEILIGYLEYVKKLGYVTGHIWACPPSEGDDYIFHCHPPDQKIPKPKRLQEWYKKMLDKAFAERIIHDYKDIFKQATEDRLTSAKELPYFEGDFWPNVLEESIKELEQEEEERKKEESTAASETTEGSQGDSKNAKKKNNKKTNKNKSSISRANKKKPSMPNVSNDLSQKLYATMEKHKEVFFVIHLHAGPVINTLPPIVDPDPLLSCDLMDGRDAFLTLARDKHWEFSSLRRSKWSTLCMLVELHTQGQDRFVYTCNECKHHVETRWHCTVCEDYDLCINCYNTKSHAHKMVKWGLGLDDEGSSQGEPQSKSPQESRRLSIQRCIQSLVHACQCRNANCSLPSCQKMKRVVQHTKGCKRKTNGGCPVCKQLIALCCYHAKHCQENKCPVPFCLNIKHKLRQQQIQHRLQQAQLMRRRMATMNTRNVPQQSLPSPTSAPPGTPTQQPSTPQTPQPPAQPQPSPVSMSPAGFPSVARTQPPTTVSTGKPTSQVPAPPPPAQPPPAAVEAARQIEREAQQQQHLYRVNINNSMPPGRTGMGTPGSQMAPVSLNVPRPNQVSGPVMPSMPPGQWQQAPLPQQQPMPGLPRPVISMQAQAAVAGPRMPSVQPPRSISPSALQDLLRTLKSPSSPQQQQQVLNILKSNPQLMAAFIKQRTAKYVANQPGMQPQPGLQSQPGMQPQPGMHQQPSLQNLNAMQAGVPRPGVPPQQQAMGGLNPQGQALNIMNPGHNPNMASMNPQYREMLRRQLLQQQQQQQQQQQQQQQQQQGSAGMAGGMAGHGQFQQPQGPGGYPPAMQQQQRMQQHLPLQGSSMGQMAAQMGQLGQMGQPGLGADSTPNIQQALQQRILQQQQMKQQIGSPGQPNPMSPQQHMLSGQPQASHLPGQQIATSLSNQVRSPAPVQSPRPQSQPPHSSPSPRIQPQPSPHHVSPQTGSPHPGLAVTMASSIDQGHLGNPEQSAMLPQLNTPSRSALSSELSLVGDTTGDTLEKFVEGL
(In general: An ELISA detects its analyte on a solid surface through an enzyme-linked reagent.)

A further experiment relates to VCaP cells. The experiment in a line: VCaP growth inhibition assay (CTG). The class given is cell-based. The settings on record: Homo sapiens, 216 h, 30 pM R1881, 9 days. The method in brief: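 Growth was measured by CTG luminescence after a 9-day exposure of VCaP cells to compound (final 10 fM–100 nM, fivefold steps) in the presence of 30 pM final R1881, in phenol red-free DMEM/5% CSS. IC50 values were derived by nonlinear 4-parameter regression of RLU against concentration.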

In the case of `CC(=O)N1CCc2c(c(N3CCCc4cc(-c5cnn(C)c5)c(C(F)F)cc43)nn2C2CCN(CC3CC4CC3CN4c3ccc(C(=O)N[C@H]4CC[C@H](Oc5ccc(C#N)c(Cl)c5)CC4)nn3)CC2)C1` (stereo partly shown) [Compound 169, 6-[5-[[4-[5-acetyl-3-[7-(difluoromethyl)-6-(1-methylpyrazol-4-yl)-3,4-dihydro-2H-quinolin-1-yl]-6,7-dihydro-4H-pyrazolo[4,3-c]pyridin-1-yl]-1-piperidyl]methyl]-2-azabicyclo [2.2.1]heptan-2-yl]-N-[4-(3-chloro-4-cyano-phenoxy)cyclohexyl]pyridazine-3-carboxamide], the EC50 on AR / CBP ternary complex is below 1 nM. Besides, the IC50 with VCaP cells was at most 0.1 nM.

With `CC(=O)N1CCc2c(c(-c3cccc4cc(C5CC5)ncc34)nn2C2CCN(C(=O)C3CCN(c4ccc(C(=O)N[C@H]5CC[C@H](Oc6ccc(C#N)c(Cl)c6)CC5)nn4)CC3)CC2)C1` [Compound 170, 6-[4-[4-[5-acetyl-3-(3-cyclopropyl-8-isoquinolyl)-6,7-dihydro-4H-pyrazolo[4,3-c]pyridin-1-yl]piperidine1-carbonyl]-1-piperidyl]-N-[4-(3-chloro-4-cyano-phenoxy)cyclohexyl]pyridazine-3-carboxamide], on AR / CBP ternary complex, the EC50 was below 1 nM. Moreover, the IC50 in the experiment on VCaP cells is 0.1 to 1 nM.

For the compound `CC(=O)N1CCc2c(c(N3CCCc4cc(-c5cnn(C)c5)c(C(F)F)cc43)nn2C2CCN(C3CC4(CCN(c5ccc(C(=O)N[C@H]6CC[C@H](Oc7ccc(C#N)c(Cl)c7)CC6)nn5)CC4)C3)CC2)C1` [Compound 176, 6-[2-[4-[5-acetyl-3-[7-(difluoromethyl)-6-(1-methylpyrazol-4-yl)-3,4-dihydro-2H-quinolin-1-yl]-6,7-dihydro-4H-pyrazolo[4,3-c]pyridin-1-yl]-1-piperidyl]-7-azaspiro[3.5]nonan-7-yl]-N-[4-(3-chloro-4-cyano-phenoxy)cyclohexyl]pyridazine-3-carboxamide], on AR / CBP ternary complex, the EC50 was below 1 nM. The compound also came in with a half-inhibitory concentration (IC50) in the experiment with VCaP cells of 0.1 to 1 nM.

For the compound `CC(=O)N1CCc2c(c(-c3cccc4cc(-c5ccc(N6CC(C7CCN(c8ccc(C(=O)N[C@H]9CC[C@H](Oc%10ccc(C#N)c(Cl)c%10)CC9)nn8)CC7)C6)nc5)ncc34)nn2C2CCOCC2)C1` [Compound 181], the EC50 on AR / CBP ternary complex was below 1 nM. The compound also returned an IC50 in the experiment with VCaP cells of at most 0.1 nM.

As to `CC(=O)N1CCc2c(c(-c3cccc4cc(-c5cnn(C6CCC7(CC6)CCN(c6ccc(C(=O)N[C@H]8CC[C@H](Oc9ccc(C#N)c(Cl)c9)CC8)nn6)CC7)c5)ncc34)nn2C2CCOCC2)C1` [Compound 182], the EC50 on AR / CBP ternary complex is below 1 nM. The IC50 in the experiment with VCaP cells is at most 0.1 nM.

Turning to `CC(=O)N1CCc2c(c(-c3cccc4cc(-c5cnn(C6CCN(C7CCN(c8ccc(C(=O)N[C@H]9CC[C@H](Oc%10ccc(C#N)c(Cl)c%10)CC9)nn8)CC7)CC6)c5)ncc34)nn2C2CCOCC2)C1` [Compound 183], the EC50 at AR / CBP ternary complex was below 1 nM. The compound also registered an IC50 in the experiment with VCaP cells of 0.1 to 1 nM.

`CC(=O)N1CCc2c(c(-c3cccc4cc(-c5cnn([C@H]6CC[C@H](C7CCN(c8ccc(C(=O)N[C@H]9CC[C@H](Oc%10ccc(C#N)c(Cl)c%10)CC9)nn8)CC7)CC6)c5)ncc34)nn2C2CCOCC2)C1` [Compound 184]: at AR / CBP ternary complex, the EC50 lay within 1 to 10 nM. In the experiment with VCaP cells, this compound had an IC50 of 1 to 100 nM.

Turning to `CC(=O)N1CCc2c(c(N3CCCc4cc(-c5cnn(C)c5)c(C(F)F)cc43)nn2C2CC3(C2)CC2(CCN(c4ccc(C(=O)N[C@H]5CC[C@H](Oc6ccc(C#N)c(Cl)c6)CC5)nn4)CC2)C3)C1` [Compound 191, 6-[2-[5-acetyl-3-[7-(difluoromethyl)-6-(1-methylpyrazol-4-yl)-3,4-dihydro-2H-quinolin-1-yl]-6,7-dihydro-4H-pyrazolo[4,3-c]pyridin-1-yl]-9-azadispiro[3.1.56.14]dodecan-9-yl]-N-[4-(3-chloro-4-cyano-phenoxy)cyclohexyl] pyridazine-3-carboxamide], the EC50 on AR / CBP ternary complex is below 1 nM. The IC50 in the experiment with VCaP cells was in the range of 0.1 to 1 nM.

Take `CC(=O)N1CCc2c(c(N3CCCc4cc(-c5cnn(C)c5)c(C(F)F)cc43)nn2[C@H]2CC[C@@H](N3CCC4(CC3)CN(c3ccc(C(=O)N[C@H]5CC[C@H](Oc6ccc(C#N)c(Cl)c6)CC5)nn3)C4)CC2)C1` [Compound 192, 6-[7-[4-[5-acetyl-3-[7-(difluoromethyl)-6-(1-methylpyrazol-4-yl)-3,4-dihydro-2H-quinolin-1-yl]-6,7-dihydro-4H-pyrazolo[4,3-c]pyridin-1-yl]cyclohexyl]-2,7-diazaspiro[3.5]nonan-2-yl]-N-[4-(3-chloro-4-cyano-phenoxy)cyclohexyl]pyridazine-3-carboxamide]: the EC50 on AR / CBP ternary complex was below 1 nM. In the experiment on VCaP cells, this compound had an IC50 of at most 0.1 nM.

As for `CC(=O)N1CCc2c(c(N3CCCc4cc(-c5cnn(C)c5)c(C(F)F)cc43)nn2C2CCN(C3CCC(C#Cc4ccc(C(=O)N[C@H]5CC[C@H](Oc6ccc(C#N)c(Cl)c6)CC5)nn4)CC3)CC2)C1` (stereo partly shown) [Compound 194, 6-[2-[4-[4-[5-acetyl-3-[7-(difluoromethyl)-6-(1-methylpyrazol-4-yl)-3,4-dihydro-2H-quinolin-1-yl]-6,7-dihydro-4H-pyrazolo[4,3-c]pyridin-1-yl]-1-piperidyl]cyclohexyl]ethynyl]-N-[4-(3-chloro-4-cyano-phenoxy)cyclohexyl]pyridazine-3-carboxamide], the EC50 on AR / CBP ternary complex was below 1 nM. In the experiment on VCaP cells, this compound yielded an IC50 of at most 0.1 nM.

For the compound `CC(=O)N1CCc2c(c(N3CCCc4cc(-c5cnn(C)c5)c(C(F)F)cc43)nn2C2CCN(C3CC(C#Cc4ccc(C(=O)N[C@H]5CC[C@H](Oc6ccc(C#N)c(Cl)c6)CC5)nn4)C3)CC2)C1` (stereo partly shown) [Compound 195, 6-[2-[3-[4-[5-acetyl-3-[7-(difluoromethyl)-6-(1-methylpyrazol-4-yl)-3,4-dihydro-2H-quinolin-1-yl]-6,7-dihydro-4H-pyrazolo[4,3-c]pyridin-1-yl]-1-piperidyl]cyclobutyl]ethynyl]-N-[4-(3-chloro-4-cyano-phenoxy)cyclohexyl]pyridazine-3-carboxamide], at AR / CBP ternary complex, the EC50 was below 1 nM. Besides, the IC50 in the experiment with VCaP cells is at most 0.1 nM.

As to `CC(=O)N1CCc2c(c(N3CCCc4cc(-c5cnn(C)c5)c(C(F)F)cc43)nn2C2CCC3(CC2)CCN(C2CN(c4ccc(C(=O)NC5CCC(Oc6ccc(C#N)c(Cl)c6)CC5)nn4)C2)CC3)C1` (stereo not shown) [Compound 197, 6-[3-[9-[5-acetyl-3-[7-(difluoromethyl)-6-(1-methylpyrazol-4-yl)-3,4-dihydro-2H-quinolin-1-yl]-6,7-dihydro-4H-pyrazolo[4,3-c]pyridin-1-yl]-3-azaspiro[5.5]undecan-3-yl]azetidin-1-yl]-N-[4-(3-chloro-4-cyanophenoxy)cyclohexyl]pyridazine-3-carboxamide], the EC50 at AR / CBP ternary complex is below 1 nM. In the experiment on VCaP cells, this compound gave an IC50 of at most 0.1 nM.

Turning to `CC(=O)N1CCc2c(c(N3CCCc4cc(-c5cnn(C)c5)c(C(F)F)cc43)nn2C2CCN(C3CCN(c4ccc(C(=O)N[C@H]5CC[C@H](Oc6ccc(C#N)c(Cl)c6)CC5)nn4)CC3(F)F)CC2)C1` (stereo partly shown) [Compound 198, 6-[4-[4-[5-acetyl-3-[7-(difluoromethyl)-6-(1-methylpyrazol-4-yl)-3,4-dihydro-2H-quinolin-1-yl]-6,7-dihydro-4H-pyrazolo[4,3-c]pyridin-1-yl]-1-piperidyl]-3,3-difluoro-1-piperidyl]-N-[4-(3-chloro-4-cyano-phenoxy)cyclohexyl]pyridazine-3-carboxamide], at AR / CBP ternary complex, the EC50 is below 1 nM. This compound also showed an IC50 with VCaP cells of at most 0.1 nM.

For the compound `CC(=O)N1CCc2c(c(N3CCCc4cc(-c5cnn(C)c5)c(C(F)F)cc43)nn2C2CCN([C@@H]3CCN(c4ccc(C(=O)N[C@H]5CC[C@H](Oc6ccc(C#N)c(Cl)c6)CC5)nn4)C[C@@H]3C)CC2)C1` [Compound 200], at AR / CBP ternary complex, the EC50 was below 1 nM. Moreover, the IC50 with VCaP cells was at most 0.1 nM.

As to `CC(=O)N1CCc2c(c(N3CCCc4cc(-c5cnn(C)c5)c(C(F)F)cc43)nn2C2CCN(C3(C)CCN(c4ccc(C(=O)N[C@H]5CC[C@H](Oc6ccc(C#N)c(Cl)c6)CC5)nn4)CC3)CC2)C1` [Compound 201, 6-[4-[4-[5-acetyl-3-[7-(difluoromethyl)-6-(1-methylpyrazol-4-yl)-3,4-dihydro-2H-quinolin-1-yl]-6,7-dihydro-4H-pyrazolo[4,3-c]pyridin-1-yl]-1-piperidyl]-4-methyl-1-piperidyl]-N-[4-(3-chloro-4-cyano-phenoxy)cyclohexyl]pyridazine-3-carboxamide], the EC50 on AR / CBP ternary complex is below 1 nM. In addition, in the experiment on VCaP cells, the IC50 is at most 0.1 nM.

As to `CC(=O)N1CCc2c(c(N3CCCc4cc(-c5cnn(C)c5)c(C(F)F)cc43)nn2[C@H]2CC[C@@H](OC3CCN(c4ccc(C(=O)N[C@H]5CC[C@H](Oc6ccc(C#N)c(Cl)c6)CC5)nn4)CC3)CC2)C1` [Compound 204, 6-[4-[4-[5-acetyl-3-[7-(difluoromethyl)-6-(1-methylpyrazol-4-yl)-3,4-dihydro-2H-quinolin-1-yl]-6,7-dihydro-4H-pyrazolo[4,3-c]pyridin-1-yl]cyclohexoxy]-1-piperidyl]-N-[4-(3-chloro-4-cyano-phenoxy)cyclohexyl]pyridazine-3-carboxamide], on AR / CBP ternary complex, the EC50 was below 1 nM. Moreover, in the experiment with VCaP cells, the IC50 was at most 0.1 nM.

Consider `CC(=O)N1CCc2c(c(N3CCCc4cc(-c5cnn(C)c5)c(C(F)F)cc43)nn2[C@H]2CC[C@H](OC3CCN(c4ccc(C(=O)N[C@H]5CC[C@H](Oc6ccc(C#N)c(Cl)c6)CC5)nn4)CC3)CC2)C1` [Compound 205, 6-[4-[4-[5-acetyl-3-[7-(difluoromethyl)-6-(1-methylpyrazol-4-yl)-3,4-dihydro-2H-quinolin-1-yl]-6,7-dihydro-4H-pyrazolo[4,3-c]pyridin-1-yl]cyclohexoxy]-1-piperidyl]-N-[4-(3-chloro-4-cyano-phenoxy)cyclohexyl]pyridazine-3-carboxamide], for which, on AR / CBP ternary complex, the EC50 was below 1 nM. This compound also showed an IC50 with VCaP cells of at most 0.1 nM.
